The values below come from US20240189408A1, “COMPOSITIONS AND METHODS FOR REDUCING METHANE EMISSIONS IN RUMINANT POPULATIONS” (Arkea Bio Corp., priority 2022, published 2024).

Read-outs that look alike come from different tables or passages of the source.

Data set [1] can be described thus: 3-NOP to adsorbent ratio study. The format is physicochemical. Particulars: 24 hr, HPLC. On the procedure: Optimal loading of 3-NOP onto adsorbents was determined by varying ratios of 3-NOP to adsorbent. 3-NOP and adsorbent were speed mixed at 2000 rpm for 1 min at the following ratios by weight: 1:1.5, 1:2, 1:2.5. The adsorbed 3-NOP powder mixture was then placed in distilled water at 1% 3-NOP loading. The solution was allowed to equilibrate for 24 hr and then an aliquot was taken for HPLC to determine the reduction in 3-NOP concentration.

The test system of the next data set is rumen methanogens. The settings on record: cited from earlier work.
In data set [2] the test system is methane production in ruminants. The settings on record: cited from earlier work.
Data set [3] is described as follows: LNP size and polydispersity by DLS (Malvern Panalytical). The settings on record: mRNA LNPs of Table 18; for PDI: LNP polydispersity; for Z-avg.: LNP size. The format is physicochemical. On the procedure:
(§1) To prepare lipid nanoparticles (LNPs), the mRNA stocks were thawed on ice. Nucleic acid concentrations were validated by absorbance at 260 nm using a NanoDrop. The mRNAs were then diluted to a final concentration of 0.35 mg/mL mRNA in Precision Nanosystem's dilution buffer. 10 mL of the dilute mRNAs were loaded into separate Luer lock syringes and all bubbles were removed by gentle tapping. A NanoAssemblr Ignite NxGen Cartridge was loaded into the cartridge slot of the Ignite instrument (FIG. 8A, 801) and one mRNA syringe was attached to the aqueous inlet of the cartridge. 3.3 mL of Genvoy-ILM reagent was loaded into a separate Luer lock syringes and all bubbles were removed by gentle tapping. The Genvoy-ILM syringe was then attached to the organic inlet of the cartridge. LNPs were then generated and collected into a 15 mL conical tube. The process was repeated for the remaining two mRNAs and for a buffer only LNP control (empty). Immediately after LNPs were generated, the samples were loaded into 10K dialysis cartridges, submerged into 1×DPBS (Ca^2+ and Mg^2+-free) to reduce the ethanol concentration to <0.5%. After dialysis the LNPs were recovered from the dialysis cartridges and sterile filtered at 0.2 um. Size and polydispersity (FIG. 8A, 802) were measured using a Malvern Panalytical DLS by diluting 40 uL of LNPs into 360 uL of 1×DPBS. […] Encapsulation efficiency was measured using a RiboGreen assay following Precision Nanosystems recommended protocol using a BioTek Synergy H1 Plate Reader. The resultant encapsulation efficiencies are shown in Table 14, with an average of ˜85%.
(§2) To prepare lipid nanoparticles (LNPs), the mRNA stocks were thawed on ice. Nucleic acid concentrations were validated by absorbance at 260 nm using a NanoDrop. The mRNAs were then diluted to a final concentration of 0.35 mg/mL mRNA in Precision Nanosystem's dilution buffer. 10 mL of the dilute mRNAs were loaded into separate Luer lock syringes and all bubbles were removed by gentle tapping. A NanoAssemblr Ignite NxGen Cartridge was loaded into the cartridge slot of the Ignite instrument and one mRNA syringe was attached to the aqueous inlet of the cartridge. 3.3 mL of Genvoy-ILM reagent was loaded into a separate Luer lock syringes and all bubbles were removed by gentle tapping. The Genvoy-LM syringe was then attached to the organic inlet of the cartridge. LNPs were then generated and collected into a 15 mL conical tube. The process was repeated for the remaining mRNAs and for a buffer only LNP control (empty). Immediately after LNPs were generated, the samples were loaded into 10K dialysis cartridges, submerged into Ix DPBS (Ca^2+ and Mg^2+-free) to reduce the ethanol concentration to <0.5%. After dialysis the LNPs were recovered from the dialysis cartridges and sterile filtered at 0.2 um. Size and polydispersity (FIG. 12 and FIG. 13) were measured using a Malvern Panalytical DLS by diluting 40 uL of LNPs into 360 uL of 1×DPBS. […] Encapsulation efficiency was measured using a RiboGreen assay following Precision Nanosystems recommended protocol using a BioTek Synergy H1 Plate Reader. The resultant encapsulation efficiencies are shown in Table 18, with an average of ˜60%.
(§3) To prepare lipid nanoparticles (LNPs), the mRNA stocks are thawed on ice. Nucleic acid concentrations are validated by absorbance at 260 nm using a NanoDrop. The mRNAs are then diluted to a final concentration of 0.35 mg/mL mRNA in Precision Nanosystem's dilution buffer. 10 mL of the dilute mRNAs are loaded into separate Luer lock syringes and all bubbles are removed by gentle tapping. A NanoAssemblr Ignite NxGen Cartridge is loaded into the cartridge slot of the Ignite instrument and one mRNA syringe is attached to the aqueous inlet of the cartridge. 3.3 mL of Genvoy-ILM reagent is loaded into a separate Luer lock syringes and all bubbles are removed by gentle tapping. The Genvoy-ILM syringe is then attached to the organic inlet of the cartridge. […]

Data set [4] can be described thus: LNP encapsulation efficiency, RiboGreen assay. Format: physicochemical. The settings on record: mRNA LNPs of Table 18. On the procedure: as §1, §2, §3
Setting [5] is: 3-NOP:Adsorbent 1:1.5, distilled water at 1% 3-NOP loading.
Setting [6] is: 3-NOP:Adsorbent 1:2, distilled water at 1% 3-NOP loading.
The mark [7] stands for this setting: 3-NOP:Adsorbent 1:2.5, distilled water at 1% 3-NOP loading.
[8] abbreviates: beef cattle, fed at […] of DM intake.

As for `N[C@@H](CCC(=O)O)C(=O)O` [Glutamic acid], the figures for the “Average Integrated Area of 3-NOP in solution” value in data set [1] (setting [5]), in data set [1] (setting [6]) and in data set [1] (setting [7]) were 2445.9, 2452.5 and 2446.3, respectively.
Turning to `ClC(Cl)Cl` [chloroform], the “duration of substantial inhibition of methanogenesis” value in the data set with rumen methanogens (drenching to cattle) is recorded as “up to 32 days”.
On to `ClCBr` [BCM, bromochloromethane], for which, in the data set on rumen methanogens (steers fed grain-based diets), the “toxicity or residues in meat” value is “no signs of toxicity or residues in meat”.
With `CC(CO)[N+](=O)[O-]` (stereo not drawn) [2-nitropropanol], the “Addition amount; maximum methane suppression amount” value (from here on “Addition amount”) in data set [2] (10 mmol/L) is listed as 41.7% (NPOH). In the data set on rumen methanogens (steers), the “lowering of CH4 production” value was 37%.
Consider `N=C(N)NCCC[C@H](N)C(=O)O` [Arginine], for which the “Average Integrated Area of 3-NOP in solution” value in data set [1] (setting [5]) came out at 2406.0; in data set [1] (setting [6]), 2372.8; in data set [1] (setting [7]), 2435.2.
Turning to `O=C(O)/C=C/c1ccc(O)c(O)c1` [Caffeic acid], in data set [2] (12 mM), the “Addition amount” value is reported as 12 mM, Caffeic acid; 37.58%;.
Regarding `Oc1ccc(C=Cc2cc(O)cc(O)c2)cc1` [resveratrol], the “Addition amount” value was “high-concentrate diets; 41%” in data set [2] (25 mg, high-concentrate diets) and 25 mg, high-forage diets; 60%; in data set [2] (25 mg, high-forage diets).
As to `O=C(O)CC(O)C(=O)O` (stereo not drawn) [Malate], in the data set with rumen methanogens (setting [8]), the “decrease of CH4 production” value was 16% and the “reduction of CH4 per unit of DM intake” value is 9%.
For `O=[N+]([O-])CCO` [2-nitroethanol], the “Addition amount” value in data set [2] (10 mmol/L) was 96.7% (NEOH),.
For the molecule `CC[C@@]1([C@@H]2O[C@@H]([C@H]3O[C@@](O)(CO)[C@H](C)C[C@@H]3C)C[C@@H]2C)CC[C@H]([C@]2(C)CC[C@]3(C[C@H](O)[C@@H](C)[C@@H]([C@@H](C)[C@@H](OC)[C@H](C)C(=O)O)O3)O2)O1` [monensin], the CH4 suppression entry in data set [2] (10-15 ppm) was “no CH4 suppression was observed”. Further, the “lowering of CH4 production (g/kg DM intake)” value in data set [2] (fed at 24-35 mg/kg diet) is on record as “up to 10%”. Further, the CH4 production result with rumen methanogens (tropical cattle, 60 mg/day/cow) was “did not lower CH4 production”. In addition, the “decrease of CH4 production” value in the data set with rumen methanogens (tropical cattle, 250 mg/day/cow, DM intake lowered) is “about 30%”.
In the case of `O=C(O)/C=C/c1ccc(O)cc1` [p-coumaric acid], the “Addition amount” value in data set [2] (12 mM) is given as “p-coumaric acid; 28.33%”.
For the molecule `O=[N+]([O-])O` [Nitrate], the “Addition amount” value in data set [2] (5 mM (Liu et al., 2017)) was 5 mM 43.26%; in data set [2] (5 mmol/L (Wu et al., 2019)) it was 5 mmol/L; 32.92%; in data set [2] (20 mg/g dry matter (Alvarez-Hess et al., 2019)) it was 20 mg/g dry matter; 21%.

B1: ARK013: mRNA: SP + mru0143 + STOP; SEQ ID NO: 16687 (nucleic acid)
chain: ATGTTCGTGTTCCTCGTGCTCCTGCCCCTCGTCTCCAGCCAGTGCGTGTACCTCATGACACTCCCCCTGGACGGACTCGGGCACCCCTTCCCCCTGCCATGA
modifications: listed as DNA, chemistry not fully specified
B1: in data set [3], the PDI is 0.1841 and the Z-avg. came out at 78.82 nm·days. Moreover, the Encapsulation efficiency in data set [4] is 60%.

B2: ARK001: mRNA: SP + WP_004031278.1 (Methanobacterium formicicum) + TM/C; SEQ ID NO: 16676 (nucleic acid)
chain: ATGTTCGTGTTCCTCGTGCTCCTGCCCCTCGTCTCCAGCCAGTGCGTGTACCTCATGACACTGAGCCTGCCAGGGTTCGCACATCCCTTCGCACTCCCCCCCTGGTACATCTGGCTGGGCTTCATCGCAGGACTGATCGCCATCGTCATGGTCACCATAATGCTCTGTTGCATGACCTCCTGCTGTAGCTGCCTGAAAGGCTGTTGCAGCTGCGGGAGCTGCTGCAAATTCGACGAAGACGATAGCGAACCTGTGCTCAAAGGGGTGAAGTTGCATTACACATAGTGA
modifications: listed as DNA
Regarding B2, in data set [3], the PDI came to 0.086 and the Z-avg. was determined as 78.82 nm·days. In data set [4], the Encapsulation efficiency stood at 51%.

B3: ARK012: mRNA: SP + WP_012956721.1 + STOP; SEQ ID NO: 16686 (nucleic acid)
chain: ATGTTCGTGTTCCTCGTGCTCCTGCCCCTCGTCTCCAGCCAGTGCGTGGGGTCCATAGGGGCTGCTTCTATGGAGTTCTGTTTTGATGTTTTCAAGGAACTGAAGGTTCACCATGCTAACGAGAACATCTTTTACTGTCCAATAGCCATCATGAGTGCGCTTGCTATGGTTTATTTGGGTGCAAAAGATTCTACTCGCACTCAGATTAATAAGGTCGTTAGATTCGACAAGCTTCCAGGGTTTGGAGACAGTATTGAGGCCCAATGTGGAACGTCAGTCAACGTCCATTCTTCTCTGCGGGACATTCTCAACCAAATAACGAAGCCAAACGACGTGTATTCCTTCTCACTCGCGTCACGGCTGTATGCTGAAGAAAGGTATCCTATCTTGCCAGAATATCTCCAGTGCGTCAAGGAGTTGTATCGAGGCGGACTGGAACCGATCAACTTTCAGACTGCAGCCGACCAGGCCCGCGAACTGATCAACAGCTGGGTCGAGTCTCAGACCAATGGGATCATACGCAATGTGTTGCAACCGAGTAGTGTCGACTCTCAGACGGCTATGGTCTTGGTGAACGCTATAGTCTTCAAAGGTCTGTGGGAGAAGACCTTCAAGGATGAAGACACACAAGCGATGCCATTCAGAGTCACCGAACAAGAAAGCAAACCCGTCCAAATGATGTACCAAATTGGGCTTTTTCGGGTGGCCTCTATGGCCTCTGAGAAAATGAAAATATTGGAACTGCCCTTCGCCAGCGGCACAATGAGTATGTTGGTCCTTCTTCCAGATGAAGTCTCAGGTCTCGAACAGCTTGAGTCTATCATTAACTTTGAGAAACTCACTGAATGGACTTCTTCCAATGTGATGGAAGAACGAAAAATCAAAGTCTACCTGCCCCGAATGAAGATGGAAGAGAAATATAATTTGACATCAGTTCTGATGGCCATGGGAATCACAGACGTGTTTTCATCCTCTGCGAATCTGTCTGGCATATCTTCCGCAGAATCTCTCAAGATCAGTCAAGCCGTCCACGCGGCCCATGCTGAGATAAATGAGGCGGGCAGAGAGGTGGTGGGGTCCGCCGAAGCTGGAGTCGACGCAGCTTCTGTCAGTGAAGAATTTAGGGCCGATCATCCTTTCCTGTTCTGCATAAAGCACATAGCTACGAACGCTGTGCTTTTCTTTGGCAGATGCGTTTCTCCACCCTGGTACATCTGGCTGGGCTTCATCGCAGGACTGATCGCCATCGTCATGGTCACCATAATGCTCTGTTGCATGACCTCCTGCTGTAGCTGCCTGAAAGGCTGTTGCAGCTGCGGGAGCTGCTGCAAATTCGACGAAGACGATAGCGAACCTGTGCTCAAAGGGGTGAAGTTGCATTACACATAGTGA
modifications: listed as DNA
On to B3, for which, in data set [3], the PDI amounted to 0.100 and the Z-avg. came to 78.82 nm·days. Moreover, in data set [4], the Encapsulation efficiency is 49%.
